# Reference: US20070110818A1, “Milk fractions and milk preparations for treating and/or preventing cox-2 mediated diseases” (priority 2003, published 2007)
# Target: T1, COX-2 (Homo sapiens, UniProt P35354)
# T1 construct: treated with 100 nM (nmol/l) phorbol 12-myristate 13-acetate for 6 h at 37° C. to induce COX-2 isoenzyme; endogenous in cells; host or cells: HUV-EC-C (ATCC CRL1730), PMA-induced
# T1 sequence (P35354 18-604): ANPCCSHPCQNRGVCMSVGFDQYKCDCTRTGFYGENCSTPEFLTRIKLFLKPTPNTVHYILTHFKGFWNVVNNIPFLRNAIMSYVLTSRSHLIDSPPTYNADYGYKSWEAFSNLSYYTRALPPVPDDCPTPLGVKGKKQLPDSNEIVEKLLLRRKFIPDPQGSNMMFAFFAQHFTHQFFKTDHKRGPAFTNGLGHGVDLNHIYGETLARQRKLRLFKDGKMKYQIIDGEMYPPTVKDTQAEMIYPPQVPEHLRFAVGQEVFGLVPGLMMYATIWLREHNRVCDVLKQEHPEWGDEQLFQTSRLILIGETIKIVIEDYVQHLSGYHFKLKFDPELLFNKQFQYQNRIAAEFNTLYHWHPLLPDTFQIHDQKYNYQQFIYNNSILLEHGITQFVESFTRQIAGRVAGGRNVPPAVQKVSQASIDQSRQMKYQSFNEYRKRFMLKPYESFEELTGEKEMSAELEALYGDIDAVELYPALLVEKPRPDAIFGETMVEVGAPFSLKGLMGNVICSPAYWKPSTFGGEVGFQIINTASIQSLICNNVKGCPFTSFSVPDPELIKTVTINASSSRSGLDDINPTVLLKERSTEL
# Assay: COX-2 screening in PMA-induced HUV-EC-C cells (Prostaglandine-E2 production by RIA)
# Assay type: cell-based
# Method: HUV-EC-C cells (a permanent endothelial cell line derived from the vein of a normal human umbilical cord; ATCC CRL1730; M. Miralpeix, M. Camacho et al., Brit. J. Pharmacol. 121 (1997), 171-180), were seeded onto 96-well plates (RPMI 1640+10% FCS) and treated with 100 nM (nmol/l) phorbol 12-myristate 13-acetate for 6 h at 37° C. to induce COX-2 isoenzyme. 50 μM (μmol/l) arachidonic acid were then added and the cells were incubated in the presence of test compounds or mixtures for 30 min at 37° C. Prostaglandine-E2 production was measured by radioimmuno assay (RIA) and the radioactivity determined with a scintillation counter (Topcount, Packard) using a liquid scintillation cocktail (Packard).
# The results obtained are expressed as a percent of control values and as a percent inhibition of control values obtained in the presence of the test compounds. The control values correspond to the COX-2 activity of HUV-EC-C cells after stimulation with Phorbol Myristate Acetate (PMA) during 6 hours at 37° C. (can be done also with Tumor Necrosis Factor type alpha: TNFα) in absence of test compound.
# The concentration causing a half-maximal inhibition of control values (IC50 value) and Hill coefficients (nH) were determined for the reference compounds (cycloheximide) by nonlinear regression analysis of their inhibition curves. These parameters were obtained by Hill equation curve fitting. […]
smiles,measurement,value
N[C@@H](CS)C(=O)O [Cysteine],cyclooxygenase-2 inhibiting activity (in words),no effect
